In PubChem BioAssay AID467 (The Scripps Research Institute Molecular Screening Center, 2006):
The source made the active and inactive calls. How the calls were made is not given here.

System: parental cell line counter screen, S1P1 agonist assay readout
Test: signal in parental cells, counter-screen for S1P1 agonist project (AID 467);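 further: agonist potency measured against forskolin stimulation plus an EC20 level of SEW2871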

Structure (SMILES)	EC50
Cc1ccc(OCc2nc(-c3ccccc3)no2)c(C)c1	> 95.1 µM (inactive)
Cc1ccccc1CS(=O)(=O)c1nnc([C@H](CC(C)C)NC(=O)OC(C)(C)C)o1	2.89 µM
COc1ccccc1N/C(N)=N/c1nc(CSc2ccc(C)cc2)cc(=O)[nH]1	> 95.1 µM (inactive)
Cc1ccc(-n2c(C)cc(C(=O)CSc3nnnn3C)c2C)cc1	> 95.1 µM (inactive)
CN1/C(=C/C(=O)c2nc(S(C)(=O)=O)ncc2Cl)C(C)(C)c2ccccc21	2.22 µM
CC(=O)N1C=CN(C(C)=O)C(c2cn(C)c3ccccc23)C1c1cn(C)c2ccccc12 (stereo not drawn)	> 30 µM (inactive)
Clc1ccc(CSc2nnc(-c3ccncc3)o2)cc1	86.9 µM (inactive)
CCOc1ccccc1COC(=O)c1cccc(-n2cnnn2)c1	> 95.1 µM (inactive)
CC(C)c1ccc2oc(-c3ccc(N)cc3)nc2c1	> 30 µM (inactive)
Cc1ccc(C(=O)Nc2nc(COc3ccccc3)cs2)s1	28.9 µM (inactive)
CCC(=NCc1ccc2c(c1)OCO2)c1c(O)n(C2CCCCC2)c(=O)[nH]c1=O	26.6 µM (inactive)
CC(C)OCCCNc1ncnc2c1[nH]c1ccc(F)cc12	24.4 µM (inactive)
COc1ccc(-c2noc(-c3cccc(OC)c3OC)n2)cc1OC	> 95.1 µM (inactive)
CCN(C1CCCCC1)S(=O)(=O)c1ccc(S(=O)(=O)NCc2ccncc2)cc1	76.5 µM (inactive)
CCOC(=O)c1ccc2c(c1)C(=O)N(C1CCCCC1)C2=O	> 95.1 µM (inactive)
CCOc1nc(C)ccc1-c1noc(-c2ccncc2)n1	> 95.1 µM (inactive)
O=C(CSc1nnc(-c2cc3ccccc3cc2O)n1Cc1ccco1)c1ccc(F)cc1	> 10 µM (inactive)
O=C(c1cc(-c2ccc(O)cc2)on1)N1CCc2ccccc2C1	> 30 µM (inactive)
COc1ccc2c(c1)CCc1c(C(=O)NC3CCCCC3)noc1-2	> 95.1 µM (inactive)
N#C/C(=C/c1ccc(N2CCCCCC2)o1)c1ccc(F)cc1	4.4 µM
CCOC(=O)C1CCN(c2ncnc3c2oc2ccc(Cl)cc23)CC1	> 95.1 µM (inactive)
CN1CCN(C(=O)CSc2nc(-c3cccs3)cc(-c3cccs3)c2C#N)CC1	19.7 µM (inactive)
CCCn1c(NC(=O)c2cccc(S(=O)(=O)N3CCCC3)c2)nc2ccccc21	10.4 µM (inactive)
CCOC(=O)c1ccc2nc(NC(=O)c3ccco3)sc2c1	> 95.1 µM (inactive)
CCCCc1ccc(C2C(C#N)=C(N)SC(N)=C2C#N)s1	16.8 µM (inactive)
Cc1cc(C(=O)Nc2sc(C)c(-c3ccc(F)cc3)c2C(N)=O)no1	> 95.1 µM (inactive)

Structure (SMILES)	EC50
Cc1csc(SCC(=O)c2cc(C)n(Cc3cccs3)c2C)n1	38.8 µM (inactive)
O=C(Nc1nc(-c2ccc3c(c2)OCO3)cs1)c1ccncc1	28.9 µM (inactive)
Cc1[nH]nc2c1C1(C(=O)N(Cc3ccc(Cl)cc3)c3ccccc31)C(C#N)=C(N)O2 (stereo not drawn)	> 30 µM (inactive)
Cc1noc(/C=C/N(C)C)c1S(=O)(=O)N1CCc2ccccc21	> 95.1 µM (inactive)
COc1ccc(-c2nc(-c3ccc(NC(=O)c4ccncc4)cc3)no2)cc1OC	> 30 µM (inactive)
CCOc1ccc(-c2nc(-c3ccccc3)no2)cc1OCC	> 95.1 µM (inactive)
c1ccc2c(c1)oc1c(N3CCN(Cc4ccc5c(c4)OCO5)CC3)ncnc12	21.3 µM (inactive)
CN(C)CC(C(=O)c1ccccc1)c1ccccc1 (stereo not drawn)	3.58 µM
CCOC(=O)c1sc2nc(NC(=O)C3CCCCC3)sc2c1C	> 95.1 µM (inactive)
c1ccc(-c2ccc(-c3nc(-c4ccncc4)no3)cc2)cc1	> 95.1 µM (inactive)
Cc1ccc(C(C)C)c(OCc2ccc(-c3nnco3)cc2)c1	> 95.1 µM (inactive)
O=C(c1ccc(F)cc1)C(CN1CCOCC1)c1ccccc1 (stereo not drawn)	11.4 µM (inactive)
CCCCn1nnnc1SCC(=O)c1ccc(C)c(C)c1	> 95.1 µM (inactive)
CC(=O)c1ccc(N2CCN(c3ccc(C(F)(F)F)cn3)CC2)cc1	> 95.1 µM (inactive)
Cc1ccc(-c2csc3ncnc(Sc4nnc(CN5CCCCCC5=O)o4)c23)cc1	2.73 µM
CCOC(=O)/C=C/S(=O)(=O)c1ccc(NC(C)=O)cc1	3.96 µM
O=C(CCN1CCc2ccccc2CC1)c1ccc2c(c1)OCCO2	4.84 µM
c1ccc(CSc2nnc(-c3cccs3)o2)cc1	> 95.1 µM (inactive)
Fc1ccccc1COc1ccc(/C=N/n2cnnc2)cc1	> 95.1 µM (inactive)
O=c1[nH]nc(Sc2ncnc3sccc23)n1CCc1ccccc1	21.1 µM (inactive)
CSc1ccc(S(=O)(=O)Nc2ccc3c(c2)OCCO3)cc1	67.2 µM (inactive)
c1ccc(CNc2ncnc3ccccc23)cc1	30.1 µM (inactive)
COc1ccc(NC(=O)c2cc(-c3cccs3)on2)cc1OC	> 95.1 µM (inactive)
Cc1cc(C(=O)N2CCN(C(c3ccccc3)c3ccccc3)CC2)no1	> 95.1 µM (inactive)
CN1c2ccccc2C(C)(C)C12C=Cc1cc(O)ccc1O2 (stereo not drawn)	> 10 µM (inactive)
CCCCOc1ccc(S(=O)(=O)n2c(C)nc3ccccc32)cc1	> 95.1 µM (inactive)

Structure (SMILES)	EC50
Cc1cc(C(=O)CSc2nnc(-c3cccnc3)n2-c2ccccc2F)c(C)n1C	> 95.1 µM (inactive)
O=C(Nc1ccccc1C(F)(F)F)c1cc(-c2ccc(O)cc2)on1	> 95.1 µM (inactive)
CC(C)c1cc(C(F)(F)F)n2nc(C(=O)Nc3ccc4c(c3)OCO4)cc2n1	> 95.1 µM (inactive)
Cc1ccc(C(=O)c2cncc(Br)c2)cc1	> 95.1 µM (inactive)
Cc1cc(C(=O)CSc2nnc(-c3cccs3)o2)c(C)n1-c1ccccc1	19.2 µM (inactive)
Cc1ccnc(SCC(=O)Nc2sc3c(c2C#N)CCCC3)n1	> 30 µM (inactive)
Cc1ccc(O)c(NC(=O)CCC2CCCCC2)c1	50.1 µM (inactive)
CCOC(=O)N1CCN(C(=O)C2CCN(c3ncnc4c3sc3cccc(F)c34)CC2)CC1	24.2 µM (inactive)
c1ccc(-c2ccc(-c3nc(-c4cccnc4)no3)cc2)cc1	> 95.1 µM (inactive)
Cc1cccc(-c2nc(CSCC(=O)N3CCN(Cc4ccc5c(c4)OCO5)CC3)c(C)o2)c1	30.5 µM (inactive)
N#Cc1nc(-c2ccc(OCc3ccccc3)cc2)oc1NCc1cccnc1	> 95.1 µM (inactive)
c1ccc(CN2CCN(c3ncnc4c3[nH]c3ccccc34)CC2)cc1	12.1 µM (inactive)
CCOc1cc(-c2noc(-c3cccnc3)n2)ccc1OC	> 95.1 µM (inactive)
Cc1ccc2[nH]c3c(N4CCCCCC4)ncnc3c2c1	10.9 µM (inactive)
CCCCOc1ccc(S(=O)(=O)Nc2cc(OC)ccc2OC)cc1	> 30 µM (inactive)
CCN(CC)C(=O)C1CCN(S(=O)(=O)c2ccc3oc4ccccc4c3c2)CC1	> 95.1 µM (inactive)
CCOc1ccc(-c2nnc(-c3cccs3)o2)cc1OCC	> 95.1 µM (inactive)
COc1cc(C#CC#CCN2CCCCC2)ccc1O	63.9 µM (inactive)
CCOC(=O)C1C(=O)C=C(c2ccc(OC)cc2)CC1c1ccco1 (stereo not drawn)	> 30 µM (inactive)
CCCc1cc(C(=O)Nc2sc(C)c(CC)c2C#N)no1	> 95.1 µM (inactive)
COc1ccc(-c2nc(-c3ccc(Br)o3)no2)cc1OC	> 95.1 µM (inactive)
CC(=O)c1ccc(NC(=O)N2CCN(c3cccc(Cl)c3)CC2)cc1	> 30 µM (inactive)
OC(c1cccc(OCc2ccccc2)c1)c1nnc(-c2ccccc2)o1 (stereo not drawn)	> 30 µM (inactive)
c1ccc2c(c1)CCN(c1ncnc3c1[nH]c1ccccc13)C2	5.88 µM
O=C(CSCC(=O)N1CCCCC1)Nc1nc(-c2cccs2)cs1	> 30 µM (inactive)
CS(=O)(=O)n1nc(OC(=O)c2cccc3ccccc23)cc1N	12 µM (inactive)

Structure (SMILES)	EC50
CCOc1cc(C2NCc3ccccc3-n3cccc32)ccc1O (stereo not drawn)	> 95.1 µM (inactive)
CCC(=O)Nc1ccc2c(c1)C(=O)N(C1CCCCC1)C2=O	> 95.1 µM (inactive)
CCCCn1ccnc1C(=O)c1cccc(S(=O)(=O)N2c3ccccc3CC2C)c1 (stereo not drawn)	> 95.1 µM (inactive)
CC(C)N1C(=O)CCC1C(=O)N1CCC(Cc2ccccc2)CC1 (stereo not drawn)	> 95.1 µM (inactive)
Cc1nn(Cc2ccc(Cl)c(Cl)c2)c(C)c1NC(=O)c1cc(-c2ccco2)on1	13.2 µM (inactive)
Fc1ccc2[nH]c3c(N4CCN(Cc5ccc6c(c5)OCO6)CC4)ncnc3c2c1	8.16 µM
CC(=O)Nc1ccccc1OCC(=O)c1cc(C)n(Cc2cccs2)c1C	10.5 µM (inactive)
CN(C)c1ccnc2sc3c(=O)n(Cc4ccccc4)cnc3c12	> 95.1 µM (inactive)
COc1ccc(OCCCSc2ncccn2)cc1	> 95.1 µM (inactive)
Cc1nnc(SCC(=O)N2CCC(c3noc4ccc(F)cc34)CC2)s1	> 95.1 µM (inactive)
Oc1ccc(-c2nnc(-c3ccc(O)cc3)nn2)cc1	> 95.1 µM (inactive)
O=C(Nc1cccc(C(F)(F)F)c1)C1CCCN1S(=O)(=O)c1cccc2cccnc12 (stereo not drawn)	> 30 µM (inactive)
CC(C)(C)C1CCC2(CC1)C(C#N)=C(SCC(=O)Nc1ccccc1)NC(=O)C2C#N (stereo not drawn)	7.15 µM
Cc1nc2sccn2c1-c1csc(NCc2ccccc2)n1	20 µM (inactive)
CC(C)Cc1cc(C(=O)Nc2sc3c(c2C#N)CCCC3)no1	> 95.1 µM (inactive)
COc1ccc(C(c2c(O)ccc3ccccc23)N2CCOCC2)c(OC)c1 (stereo not drawn)	1.45 µM
CCOc1ccc(C(=O)Nc2ccc(Cl)cn2)cc1Cl	> 95.1 µM (inactive)
CCOC(=O)c1c(C)[nH]c(C(=O)C(C)OC(=O)c2cccc(OCc3c(C)noc3C)c2)c1C (stereo not drawn)	20.1 µM (inactive)
Cc1ccc(C)c(-n2nnnc2Sc2nnnn2-c2ccccc2)c1	6.91 µM
O=C(CSc1nnc(-c2c[nH]c3ccccc23)o1)N1c2ccccc2CCc2ccccc21	> 95.1 µM (inactive)
CC1=C(C(=O)OCc2ccc3c(c2)OCO3)C(c2ccccc2)NC(=O)N1 (stereo not drawn)	> 10 µM (inactive)
CCOc1ccc(S(=O)(=O)n2cnc3cc(C)c(C)cc32)cc1	> 30 µM (inactive)
CCCCNc1cc(C)nc(NCc2ccccc2)n1	12.8 µM (inactive)
COc1ccc(-c2nc(-c3cccc(C(F)(F)F)c3)no2)cc1OC	> 95.1 µM (inactive)
Clc1ccccc1C1=Nn2c(nnc2-c2ccncc2)SC1	13.9 µM (inactive)
